Laboratory results reported in ChEMBL document CHEMBL5543174, “A Nonbactericidal Anionic Antimicrobial Peptide Provides Prophylactic and Therapeutic Efficacies against Bacterial Infections in Mice by Immunomodulatory-Antithrombotic Duality” (J Med Chem, 2024).
Calls of active or inactive are those of the source. No cut-off for these calls is given here.

How the values were obtained:
Staphylococcus aureus [1] = assay: Antibacterial activity against Staphylococcus aureus ATCC 25923 infected in C57BL/6 mouse assessed as reduction in IL-1beta level in peritoneal fluid at 10 mg/kg,ip pre-administrated 5 hrs before bacterial infection measured after 24 hrs by ELISA; assay type: functional, organism-based; details: time 29.0 hrs
Mus musculus [2] = assay: Immunomodulatory activity in cyclophosphamide immunosuppressed C57BL/6 mouse with neutrophil depletion model assessed as increase in number of neutrophil in peritoneal lavage at 10 mg/kg,ip administration measured after 5 hrs by flow cytometry; assay type: functional, organism-based
Mus musculus [3] = assay: Anticoagulation activity in mouse infected with Carbapenem-resistant Escherichia coli assessed as increase in plasma APC expression at 10 mg/kg,ip pre-administrated 5 hrs before bacterial infection measured after 24 hrs by ELISA; assay type: functional, organism-based; details: time 29.0 hrs
Staphylococcus aureus [4] = assay: Antibacterial activity against Staphylococcus aureus ATCC 25923 infected in C57BL/6 mouse assessed as reduction in inflammatory injury in lung at 10 mg/kg,ip pre-administrated 5 hrs before bacterial infection measured after 24 hrs by hematoxylin and eosin staining based analysis; assay type: functional, organism-based; details: time 29.0 hrs
Peritoneal macrophage [5] = assay: Induction of chemotaxis in mouse Peritoneal macrophage assessed as upregulation of MCP-1 expression incubated for 6 hrs by ELISA; assay type: functional, cell-based
Acinetobacter junii = assay: Antimicrobial activity against Acinetobacter junii ATCC 17908 assessed as inhibition of microbial growth at <= 200 ug/ml incubated for 18 hrs by micro-broth dilution method; assay type: functional, organism-based; details: dose <= 200.0 µg/ml
Mus musculus [6] = assay: Anticoagulation activity in mouse infected with Carbapenem-resistant Escherichia coli assessed as increase in plasma AT-III expression at 10 mg/kg,ip administrated 5 hrs after bacterial infection measured after 24 hrs by ELISA; assay type: functional, organism-based; details: time 19.0 hrs
[7] = tested on: Peritoneal macrophage cell; assay: Induction of chemotaxis in mouse Peritoneal macrophage assessed as upregulation of CXCL2 expression incubated for 6 hrs by ELISA; assay type: functional, cell-based
Staphylococcus aureus [8] = assay: Antibacterial activity against Methicillin-resistant Staphylococcus aureus infected in C57BL/6 mouse assessed as reduction in IL-6 level in peritoneal fluid at 10 mg/kg,ip administrated 5 hrs after bacterial infection measured after 24 hrs by ELISA; assay type: functional, organism-based; details: time 19.0 hrs
Mus musculus [9] = assay: Antithrombotic activity in carrageenan-induced tail thrombosis BALB/c mouse model assessed as reduction in thrombus length at 10 mg/kg,ip administration measured for 6 to 48 hrs; assay type: functional, organism-based; details: time 6-48 hrs
Pseudomonas aeruginosa = assay: Antimicrobial activity against Pseudomonas aeruginosa ATCC 27853 assessed as inhibition of microbial growth at <= 200 ug/ml incubated for 18 hrs by micro-broth dilution method; assay type: functional, organism-based; details: dose <= 200.0 µg/ml
Escherichia coli [10] = assay: Antibacterial activity against Carbapenem-resistant Escherichia coli infected in C57BL/6 mouse assessed as reduction in IL-6 level in serum at 10 mg/kg,ip administrated 5 hrs after bacterial infection measured after 24 hrs by ELISA; assay type: functional, organism-based; details: time 19.0 hrs
Staphylococcus aureus [11] = assay: Antibacterial activity against Methicillin-resistant Staphylococcus aureus infected in C57BL/6 mouse assessed as reduction in inflammatory injury in lung at 10 mg/kg,ip pre-administrated 5 hrs before bacterial infection measured after 24 hrs by hematoxylin and eosin staining based analysis; assay type: functional, organism-based; details: time 29.0 hrs
Peritoneal macrophage [12] = assay: Immunomodulatory activity in mouse Peritoneal macrophage assessed as decrease in LPS-induced IL-1beta production at 25 to 100 ug/ml incubated for 6 hrs by ELISA; assay type: functional, cell-based; details: dose 25-100 µg/ml
Escherichia coli [13] = assay: Antibacterial activity against Escherichia coli ATCC 25922 infected in C57BL/6 mouse assessed as reduction in bacterial load at 10 mg/kg,ip pre-administrated 5 hrs before bacterial infection; assay type: functional, organism-based
Mus musculus [14] = assay: Antithrombotic activity in C57BL/6 mouse tail transection model assessed as increase in tail bleeding time at 30 mg/kg,SC administration; assay type: functional, organism-based
Staphylococcus aureus [15] = assay: Antibacterial activity against Staphylococcus aureus ATCC 25923 infected in C57BL/6 mouse assessed as reduction in IL-6 level in peritoneal fluid at 10 mg/kg,ip pre-administrated 5 hrs before bacterial infection measured after 24 hrs by ELISA; assay type: functional, organism-based; details: time 29.0 hrs

SMILES: CC[C@H](C)[C@H](NC(=O)[C@@H]1CSSC[C@H](NC(=O)[C@H](CCC(=O)O)NC(=O)[C@@H](NC(=O)[C@H](CCCCN)NC(=O)[C@H](Cc2c[nH]cn2)NC(=O)[C@@H](NC(=O)[C@H](CCCCN)NC(=O)[C@H](CCC(=O)O)NC(=O)[C@H](C)NC(=O)[C@H](CCC(=O)O)NC(=O)[C@H](CCC(=O)O)NC(=O)[C@H](CCC(=O)O)NC(=O)[C@H](C)N)[C@@H](C)O)[C@@H](C)O)C(=O)N[C@@H](CC(C)C)C(=O)N[C@@H](CCC(=O)O)C(=O)N1)C(=O)N[C@@H](Cc1ccccc1)C(=O)N[C@H](C(=O)N[C@@H](CC(C)C)C(=O)N[C@@H](CC(C)C)C(=O)N1CCC[C@H]1C(=O)N1CCC[C@@H]1C(=O)N[C@H](C)C(=O)O)[C@@H](C)O
- Activity (Staphylococcus aureus [1]): Active
- Activity (Mus musculus [2]): Active
- Activity (Mus musculus [3]): Active
- Activity (Staphylococcus aureus [4]): Active
- Activity (Peritoneal macrophage [5]): Dose-Dependent Effect
- Activity (Acinetobacter junii): inactive
- Activity (Mus musculus [6]): Active
- Activity [7]: Dose-Dependent Effect
- Activity (Staphylococcus aureus [8]): Active
- Activity (Mus musculus [9]): Active
- Activity (Pseudomonas aeruginosa): inactive
- Activity (Escherichia coli [10]): Active
- Activity (Staphylococcus aureus [11]): Active
- Activity (Peritoneal macrophage [12]): inactive
- Activity (Escherichia coli [13]): Active
- Activity (Mus musculus [14]): inactive
- Activity (Staphylococcus aureus [15]): Active
